Results as given in patent US8445510B2, “Fused bicyclic kinase inhibitors” (OSI Pharmaceuticals, LLC, priority 2011, dated 2013).

Assays:
MKN45 cells = test: MKN45 cell proliferation assay (CellTiter-Glo); type: cell-based; details: Homo sapiens, MKN-45, 72 h; MKN45 cell line; 3 days incubation; at least duplicate experiments; read-out: Prolif. IC50
Aurora B = target: T1, Aurora B (Homo sapiens, UniProt Q96GD4); test: Aurora B cell mechanistic assay (HT-29), phospho-Histone H3 (Ser10) ELISA; type: cell-based; details: HT-29 cell line; inhibition of phospho-Histone H3 (Ser10); at least duplicate experiments (italicized if single experiment); read-out: Aurora B mech IC50
T1 construct: HT-29 cells grown in complete growth media
In short: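 HT-29 cells treated 1 h at 37 °C with serially diluted compound, then 100 nM Calyculin A added for 30 min. Lysates assayed by phospho-Histone H3 (Ser10) ELISA at 450 nm; normalized to DMSO (100%) and a reference Aurora B inhibitor (full inhibition); IC50 by four-parameter fit.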

T1 sequence (Q96GD4 whole entry): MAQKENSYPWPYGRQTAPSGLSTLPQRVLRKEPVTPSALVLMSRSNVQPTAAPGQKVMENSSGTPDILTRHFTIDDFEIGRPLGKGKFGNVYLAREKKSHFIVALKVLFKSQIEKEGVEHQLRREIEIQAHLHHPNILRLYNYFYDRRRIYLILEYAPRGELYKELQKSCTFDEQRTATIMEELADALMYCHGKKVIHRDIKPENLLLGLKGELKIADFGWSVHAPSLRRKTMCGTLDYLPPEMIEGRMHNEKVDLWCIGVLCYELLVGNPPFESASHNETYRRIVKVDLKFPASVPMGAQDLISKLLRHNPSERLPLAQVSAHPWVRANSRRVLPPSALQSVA

IC50 (MKN45 cells) | IC50 (Aurora B) | Structure (SMILES)
≤ 50 nM | 50 to 200 nM | COc1ccc(F)c(Cl)c1[C@@H](C)c1c[nH]c2ncc(-c3cn([C@H]4CC[C@H](C(=O)N(C)C)CC4)nc3C)cc12 [Example 23, trans-4-(4-{3-[(1S)-1-(2-chloro-3-fluoro-6-methoxyphenyl)ethyl]-1H-pyrrolo[2,3-b]pyridin-5-yl}-3-methyl-1H-pyrazol-1-yl)-N,N-dimethylcyclohexanecarboxamide]
≤ 50 nM | > 1000 nM | CNC(=O)[C@H]1CC[C@H](n2nc(C)c(-c3cnc4[nH]cc([C@H](C)c5c(OC)ccc(F)c5Cl)c4c3)c2C)CC1 [Example 24, trans-4-(4-{3-[(1S)-1-(2-Chloro-3-fluoro-6-methoxyphenyl)ethyl]-1H-pyrrolo[2,3-b]pyridin-5-yl}-3,5-dimethyl-1H-pyrazol-1-yl)-N-methylcyclohexanecarboxamide]
≤ 50 nM | 50 to 200 nM | COc1ccc(F)c(Cl)c1[C@@H](C)c1c[nH]c2ncc(-c3cn([C@H]4CC[C@H](O)CC4)nc3C)cc12 [Example 28, trans-4-(4-{3-[(1S)-1-(2-Chloro-3-fluoro-6-methoxyphenyl)ethyl]-1H-pyrrolo[2,3-b]pyridin-5-yl}-3-methyl-1H-pyrazol-1-yl)cyclohexanol]
